Assay results published in USRE48461E1, “Modulation of androgen receptor expression” (Ionis Pharmaceuticals, Inc., priority 2012, dated 2021).

Assays:
Format in all cases: cell-based, human
TMPRSS2 mRNA [1] = assay: TMPRSS2 mRNA levels in LMR20 cells; details: with or without DHT/R1881
Experimental: LMR20 cells were plated at 1,500 cells per well in phenol red-free medium with CSS.

PSA mRNA = assay: PSA expression in LNCaP cells (complete, CSS+DHT medium); details: for Percent inhibition of PSA expression in LNCaP cells cultured in CSS + DHT medium: CSS + DHT (1 nM) medium, 48 hrs; for Percent inhibition of PSA expression in LNCaP cells cultured in complete medium: 48 hours
In short: (§1)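 LNCaP cells treated with antisense oligonucleotides, ISIS 549148 as negative control; AR, PSA and TMPRSS2 RNA measured after 48 h. Complete medium used 1,000 cells/well; stripped-serum condition used 2,000 cells/well in phenol red-free RPMI with 5% charcoal-stripped serum, with 1 nM DHT (final) added 4 h after treatment.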

full length AR mRNA = assay: Full-length AR RNA in 22RV1 cells (complete, CSS+DHT medium); details: RNAiMax, 48 hrs
Experimental: Cells were plated at 1,000 cells per well. […] After an incubation period of 48 hrs, RNA levels of full length AR, the V7 variant, PSA and TMPRSS2 were measured.
After an incubation period of 48 hrs, RNA levels of full length AR, the V7 variant, PSA and TMPRSS2 were measured.
Cells were plated at 2,000 cells per well and cultured in CSS media for 16 hours. […] After 4 hrs, 1 nM DHT was added. […] After an incubation period of 48 hrs, RNA levels of AR, AR V7 variant, PSA and TMPRSS2 were measured.

AR mRNA = assay: AR RNA expression in C4-2 cells (complete, CSS+DHT medium); details: 48 hrs; for Percent expression of AR: C4-2 cells, CSS + DHT medium
Experimental: Cells were plated at 1,000 cells per well. […] After an incubation period of 48 hrs, RNA levels of AR, PSA and TMPRSS2 were measured.
Cells were plated at 2,000 cells per well and cultured in CSS media with 1 nM DHT. […] After an incubation period of 48 hrs, RNA levels of AR, PSA and TMPRSS2 were measured.

TMPRSS2 mRNA [2] = assay: TMPRSS2 expression in LNCaP cells (complete, CSS+DHT medium); details: for Percent inhibition of TMPRSS2 expression in LNCaP cells cultured in CSS + DHT medium: CSS + DHT (1 nM) medium, 48 hrs; for Percent inhibition of TMPRSS2 expression in LNCaP cells cultured in complete medium: 48 hours
In short: as §1

LNCaP cells = assay: LNCaP cell proliferation (complete or CSS+DHT medium); details: 5 days; for Proliferation (% untreated control) in LNCaP cells cultured in CSS + DHT medium: CSS + 1 nM DHT medium
In short: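 Proliferation of LNCaP cells read after 5 days of treatment in complete medium or charcoal-stripped serum medium plus 1 nM DHT, using CellTiter 96 AQueous One (MTS) or CellTiter-Glo.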

C4-2B cells = assay: C4-2B cell proliferation, ASO in combination with MDV3100 (Example 21); details: for Proliferation (% untreated control) in C4-2B without MDV-3100: 5 days
Experimental: C4-2B cells were plated at 1,000 cells per well. […] ISIS 549148 was included as a negative control. […] After a treatment period of 5 days, the proliferative capacity of the cancer cells was measured with CellTiter 96® AQueous One Solution Cell Proliferation kit (Promega), following the manufacturer's instructions. […]

## TTGATTTAATGGTTGC [ISIS 560131] (MOE and (S)-cEt gapmer chemistry, further chemistry not given here) [targets intron 1]
TMPRSS2 mRNA [1]
  TMPRSS2 mRNA levels in LMR20 cells: reduced PSA levels and TMPRSS2 more extensively than the LNA gapmer ISIS 554221 or MDV3100
PSA mRNA; 0.04 μM
  Percent inhibition of PSA expression in LNCaP cells cultured in CSS + DHT medium: 10%
  Percent inhibition of PSA expression in LNCaP cells cultured in complete medium: 0%
PSA mRNA; 0.2 μM
  Percent inhibition of PSA expression in LNCaP cells cultured in CSS + DHT medium: 21%
  Percent inhibition of PSA expression in LNCaP cells cultured in complete medium: 60%
PSA mRNA; 1 μM
  Percent inhibition of PSA expression in LNCaP cells cultured in CSS + DHT medium: 21%
  Percent inhibition of PSA expression in LNCaP cells cultured in complete medium: 87%
PSA mRNA; 5.0 μM
  Percent inhibition of PSA expression in LNCaP cells cultured in CSS + DHT medium: 72%
  Percent inhibition of PSA expression in LNCaP cells cultured in complete medium: 90%
Full length AR mRNA; CSS + DHT medium, 1.34 nM
  Percent inhibition of full-length AR: 65%
Full length AR mRNA; CSS + DHT medium, 4.0 nM
  Percent inhibition of full-length AR: 85%
Full length AR mRNA; CSS + DHT medium, 13.4 nM
  Percent inhibition of full-length AR: 93%
Full length AR mRNA; complete medium, 1.34 nM
  Percent inhibition of full-length AR: 7%
Full length AR mRNA; complete medium, 4.0 nM
  Percent inhibition of full-length AR: 19%
Full length AR mRNA; complete medium, 13.4 nM
  Percent inhibition of full-length AR: 49%
Full length AR mRNA; complete medium, 40 nM
  Percent inhibition of full-length AR: 76%
AR mRNA; 0.04 μM
  Percent expression of AR: 88%
  Percent expression of AR in C4-2 cells cultured in complete medium: 48%
AR mRNA; 0.2 μM
  Percent expression of AR: 57%
  Percent expression of AR in C4-2 cells cultured in complete medium: 13%
AR mRNA; 1 μM
  Percent expression of AR: 20%
  Percent expression of AR in C4-2 cells cultured in complete medium: 8%
AR mRNA; 5.0 μM
  Percent expression of AR: 15%
  Percent expression of AR in C4-2 cells cultured in complete medium: 8%
TMPRSS2 mRNA [2]; 0.04 μM
  Percent inhibition of TMPRSS2 expression in LNCaP cells cultured in CSS + DHT medium: 6%
  Percent inhibition of TMPRSS2 expression in LNCaP cells cultured in complete medium: 0%
TMPRSS2 mRNA [2]; 0.2 μM
  Percent inhibition of TMPRSS2 expression in LNCaP cells cultured in CSS + DHT medium: 11%
  Percent inhibition of TMPRSS2 expression in LNCaP cells cultured in complete medium: 25%
TMPRSS2 mRNA [2]; 1 μM
  Percent inhibition of TMPRSS2 expression in LNCaP cells cultured in CSS + DHT medium: 26%
  Percent inhibition of TMPRSS2 expression in LNCaP cells cultured in complete medium: 50%
TMPRSS2 mRNA [2]; 5.0 μM
  Percent inhibition of TMPRSS2 expression in LNCaP cells cultured in CSS + DHT medium: 64%
  Percent inhibition of TMPRSS2 expression in LNCaP cells cultured in complete medium: 51%
LNCaP cells; 0.04 μM
  Proliferation (% untreated control) in LNCaP cells cultured in CSS + DHT medium: 97 % untreated control
  Proliferation (% untreated control) in LNCaP cells cultured in complete medium: 96 % untreated control
LNCaP cells; 0.2 μM
  Proliferation (% untreated control) in LNCaP cells cultured in CSS + DHT medium: 81 % untreated control
  Proliferation (% untreated control) in LNCaP cells cultured in complete medium: 70 % untreated control
LNCaP cells; 1 μM
  Proliferation (% untreated control) in LNCaP cells cultured in CSS + DHT medium: 46 % untreated control
  Proliferation (% untreated control) in LNCaP cells cultured in complete medium: 48 % untreated control
LNCaP cells; 5.0 μM
  Proliferation (% untreated control) in LNCaP cells cultured in CSS + DHT medium: 8 % untreated control
  Proliferation (% untreated control) in LNCaP cells cultured in complete medium: 45 % untreated control
LNCaP cells; complete medium or CSS+1 nM DHT
  proliferation of LNCaP cells: reduced proliferation of the cells in a dose dependent compared to the control
C4-2B cells; ASO dose 0.04 μM + 0.08 μM MDV-3100
  Proliferation (% untreated control) in C4-2B with 0.08 μM MDV-3100: 73 % untreated control
C4-2B cells; ASO dose 0.04 μM + 0.4 μM MDV-3100
  Proliferation (% untreated control) in C4-2B with 0.4 μM MDV-3100: 69 % untreated control
C4-2B cells; ASO dose 0.04 μM + 2.0 μM MDV-3100
  Proliferation (% untreated control) in C4-2B with 2.0 μM MDV-3100: 42 % untreated control
C4-2B cells; ASO dose 0.04 μM + […] MDV-3100
  Proliferation (% untreated control) in C4-2B with […] MDV-3100: 71 % untreated control
C4-2B cells; ASO dose 0.04 μM
  Proliferation (% untreated control) in C4-2B without MDV-3100: 59 % untreated control
C4-2B cells; ASO dose 0.08 μM + 0.08 μM MDV-3100
  Proliferation (% untreated control) in C4-2B with 0.08 μM MDV-3100: 66 % untreated control
C4-2B cells; ASO dose 0.08 μM + 0.4 μM MDV-3100
  Proliferation (% untreated control) in C4-2B with 0.4 μM MDV-3100: 69 % untreated control
C4-2B cells; ASO dose 0.08 μM + 2.0 μM MDV-3100
  Proliferation (% untreated control) in C4-2B with 2.0 μM MDV-3100: 37 % untreated control
C4-2B cells; ASO dose 0.08 μM + […] MDV-3100
  Proliferation (% untreated control) in C4-2B with […] MDV-3100: 104 % untreated control
C4-2B cells; ASO dose 0.08 μM
  Proliferation (% untreated control) in C4-2B without MDV-3100: 84 % untreated control
C4-2B cells; ASO dose 0.2 μM + 0.08 μM MDV-3100
  Proliferation (% untreated control) in C4-2B with 0.08 μM MDV-3100: 56 % untreated control
C4-2B cells; ASO dose 0.2 μM + 0.4 μM MDV-3100
  Proliferation (% untreated control) in C4-2B with 0.4 μM MDV-3100: 48 % untreated control
C4-2B cells; ASO dose 0.2 μM + 2.0 μM MDV-3100
  Proliferation (% untreated control) in C4-2B with 2.0 μM MDV-3100: 49 % untreated control
C4-2B cells; ASO dose 0.2 μM + […] MDV-3100
  Proliferation (% untreated control) in C4-2B with […] MDV-3100: 53 % untreated control
C4-2B cells; ASO dose 0.2 μM
  Proliferation (% untreated control) in C4-2B without MDV-3100: 47 % untreated control
C4-2B cells; ASO dose 1.0 μM + 0.08 μM MDV-3100
  Proliferation (% untreated control) in C4-2B with 0.08 μM MDV-3100: 42 % untreated control
C4-2B cells; ASO dose 1.0 μM + 0.4 μM MDV-3100
  Proliferation (% untreated control) in C4-2B with 0.4 μM MDV-3100: 48 % untreated control
C4-2B cells; ASO dose 1.0 μM + 2.0 μM MDV-3100
  Proliferation (% untreated control) in C4-2B with 2.0 μM MDV-3100: 43 % untreated control
C4-2B cells; ASO dose 1.0 μM + […] MDV-3100
  Proliferation (% untreated control) in C4-2B with […] MDV-3100: 39 % untreated control
C4-2B cells; ASO dose 1.0 μM
  Proliferation (% untreated control) in C4-2B without MDV-3100: 41 % untreated control
C4-2B cells; C4-2B cells
  synergy with MDV3100: synergistic with MDV3100
C4-2B cells; C4-2B cells, 0.08 μM ASO in combination with 0.4 μM MDV3100
  cell proliferation inhibited, combination: 31%
C4-2B cells; C4-2B cells, ASO alone at 0.08 μM
  inhibited cell proliferation, ASO alone: 16%
